Read-outs that look alike come from different tables or passages of the source.
Tests used:
L. major [1] = tested on: L. major; set-up: method as in ChEMBL; settings: ref ChEMBL, cited from earlier work
L. major [2] = test: ChEMBL dataset of pIC50 values against L. major used for the RF model (Table S1); format: cell-based, Leishmania major; also: call rule not given here
[3] = ChemBL structures with pIC50 values used for Random forest model construction, L. major
[4] = Active/Inactive class assigned to the ChEMBL pIC50 value for Random forest model construction, ref ChEMBL
[5] = ChemBL structures with pIC50 values used for Random forest model construction (Table S1)
[6] = Active/Inactive class assigned to ChemBL structures for Random forest model construction (Table S1)

| SMILES | pIC50 Value (L. major [1]; [3]) | Outcome (L. major [2]; [4]) | pIC50 Value (L. major [1]; [5]) | Outcome (L. major [2]; [6]) |
| --- | --- | --- | --- | --- |
| COc1ccc(-c2csc3c2C2=NCCN2C=N3)cc1OC [CHEMBL1256890] | 4.00 | Inactive |  |  |
| NP(=O)(OCc1ccccc1[N+](=O)[O-])N(CCCl)CCCl (stereo not drawn) [CHEMBL1256928] | 4.52 | Inactive |  |  |
| COC(=O)c1c(O)c(C#N)c2n(c1=O)CCc1cc(OC)c(OC)cc1-2 [CHEMBL1256930] | 4.28 | Inactive |  |  |
| CN(C)Cc1c(O)ccc2c(=O)c(-c3cnn(-c4ccccc4)c3)coc12 [CHEMBL1256931] | 4.13 | Inactive |  |  |
| NP(=O)(OCc1cccc([N+](=O)[O-])c1)N(CCCl)CCCl (stereo not drawn) [CHEMBL1256964] | 4.52 | Inactive |  |  |
| COc1cc([N+](=O)[O-])ccc1COP(N)(=O)N(CCCl)CCCl (stereo not drawn) [CHEMBL1256965] | 4.81 | Inactive |  |  |
| COc1cc(COP(N)(=O)N(CCCl)CCCl)ccc1[N+](=O)[O-] (stereo not drawn) [CHEMBL1256966] | 4.52 | Inactive |  |  |
| Cc1cc(COP(N)(=O)N(CCCl)CCCl)ccc1[N+](=O)[O-] (stereo not drawn) [CHEMBL1256989] | 4.52 | Inactive |  |  |
| NP(=O)(OCc1ccc([N+](=O)[O-])c(F)c1)N(CCCl)CCCl (stereo not drawn) [CHEMBL1256990] | 5.04 | Active |  |  |
| NP(=O)(OCc1ccc([N+](=O)[O-])cc1F)N(CCCl)CCCl (stereo not drawn) [CHEMBL1256991] |  |  | 5.33 | Active |
| NP(=O)(OCc1ccc([N+](=O)[O-])cc1C(F)(F)F)N(CCCl)CCCl (stereo not drawn) [CHEMBL1257016] | 5.23 | Active |  |  |
| NP(=O)(OCc1ccc([N+](=O)[O-])cc1Cl)N(CCCl)CCCl (stereo not drawn) [CHEMBL1257017] |  |  | 5.51 | Active |
| NP(=O)(OCc1c(F)cc([N+](=O)[O-])cc1F)N(CCCl)CCCl (stereo not drawn) [CHEMBL1257018] |  |  | 5.89 | Active |
| CC1=N[C@H](C)Cc2c(-c3ccc(C(F)(F)F)cc3)ccc(O)c21 [CHEMBL1275619] | 4.00 | Inactive |  |  |
| CC1(C)Cc2c(Br)ccc(O)c2C=N1 [CHEMBL1275726] | 4.00 | Inactive |  |  |
| CC(C)Oc1cc(NC(=N)c2ccccn2)ccc1-c1ccc(-c2ccc(NC(=N)c3ccccn3)cc2OC(C)C)o1 [CHEMBL1275764] |  |  | 7.85 | Active |
| COc1ccc(-c2ccccc2)c2c1C(C)=N[C@H](C)C2 [CHEMBL1275787] | 4.00 | Inactive |  |  |
| CC1=N[C@H](C)Cc2c(-c3ccccc3)ccc(O)c21 [CHEMBL1275788] | 4.00 | Inactive |  |  |
| CC1=N[C@H](C)Cc2c(-c3ccc(C)cc3)ccc(O)c21 [CHEMBL1275822] | 4.07 | Inactive |  |  |
| CC1=N[C@H](C)Cc2c(-c3ccc(Cl)cc3)ccc(O)c21 [CHEMBL1275824] | 4.00 | Inactive |  |  |
| CC1=N[C@H](C)Cc2c(-c3cccc(Cl)c3)ccc(O)c21 [CHEMBL1275866] | 4.28 | Inactive |  |  |

| SMILES | pIC50 Value (L. major [1]; [3]) | Outcome (L. major [2]; [4]) | pIC50 Value (L. major [1]; [5]) | Outcome (L. major [2]; [6]) |
| --- | --- | --- | --- | --- |
| CC1=C(C(=O)OC(C)C)C(c2cccc([N+](=O)[O-])c2)C(C(=O)OC2CN(C(c3ccccc3)c3ccccc3)C2)=C(N)N1 (stereo not drawn) [CHEMBL1275868] | 4.77 | Inactive |  |  |
| CCOc1cc(NC(=N)c2ccccn2)ccc1-c1ccc(-c2ccc(NC(=N)c3ccccn3)cc2OCC)o1 [CHEMBL1276549] |  |  | 7.59 | Active |
| CC1=N[C@H](C)Cc2c(-c3cccc4ccccc34)ccc(O)c21 [CHEMBL1276916] | 4.87 | Inactive |  |  |
| COc1ccc(-c2ccc3ccccc3c2)c2c1C(C)=N[C@H](C)C2 [CHEMBL1276917] | 4.55 | Inactive |  |  |
| CC1=N[C@H](C)Cc2c(-c3ccc4ccccc4c3)ccc(O)c21 [CHEMBL1276918] | 4.46 | Inactive |  |  |
| COc1ccc(-c2ccc(OC)c3ccccc23)c2c1C=NC(C)(C)C2 [CHEMBL1277742] | 4.43 | Inactive |  |  |
| COc1ccc(-c2ccc(OC)c3ccccc23)c2c1C=NCC2 [CHEMBL1277828] | 4.33 | Inactive |  |  |
| COc1cccc2c(-c3ccc(O)c4c3CC(C)(C)N=C4)ccc(O)c12 [CHEMBL1277993] | 4.00 | Inactive |  |  |
| COc1ccc(-c2ccc(C)cc2)c2c1C(C)=N[C@H](C)C2 [CHEMBL1278083] | 4.08 | Inactive |  |  |
| COc1ccc(-c2ccc(C(F)(F)F)cc2)c2c1C(C)=N[C@H](C)C2 [CHEMBL1278172] | 4.00 | Inactive |  |  |
| O=C(CCl)N1c2ccccc2CCc2ccccc21 [CHEMBL1314125] | 4.36 | Inactive |  |  |
| COc1cc(C2NC(=O)NC(C)=C2C(C)=O)ccc1O (stereo not drawn) [CHEMBL1342564] |  |  | 5.59 | Active |
| COc1ccc(C2NC(=O)NC(C)=C2C(C)=O)cc1 (stereo not drawn) [CHEMBL1369396] |  |  | 5.58 | Active |
| O=[N+]([O-])c1ccc2nc(-c3ccc(Cl)cc3)[nH]c2c1 [CHEMBL1407741] |  |  | 5.63 | Active |
| Cc1ccc(-c2nc3ccc([N+](=O)[O-])cc3[nH]2)cc1 [CHEMBL1446966] |  |  | 5.46 | Active |
| O=[N+]([O-])c1ccc2nc(-c3ccccc3[N+](=O)[O-])[nH]c2c1 [CHEMBL1481977] |  |  | 5.59 | Active |
| O=[N+]([O-])c1ccc(-c2nc3ccc([N+](=O)[O-])cc3[nH]2)cc1 [CHEMBL1483847] |  |  | 5.58 | Active |
| CC(=O)C1=C(C)NC(=O)NC1c1ccccc1 (stereo not drawn) [CHEMBL1496818] |  |  | 5.58 | Active |
| COc1cccc2c1C(=O)C=C(C)C2=O [CHEMBL1531003] |  |  | 5.48 | Active |
| COc1ccc(-c2nc3ccc([N+](=O)[O-])cc3[nH]2)cc1 [CHEMBL1535921] |  |  | 5.50 | Active |
| O=[N+]([O-])c1cccc(-c2nc3ccc([N+](=O)[O-])cc3[nH]2)c1 [CHEMBL1563210] |  |  | 5.56 | Active |

| SMILES | pIC50 Value (L. major [1]; [3]) | Outcome (L. major [2]; [4]) | pIC50 Value (L. major [1]; [5]) | Outcome (L. major [2]; [6]) |
| --- | --- | --- | --- | --- |
| CCN1CSC(=S)N(CC)C1 [CHEMBL1571763] | 4.42 | Inactive |  |  |
| Fc1ccc(-c2nc3ccccc3[nH]2)cc1 [CHEMBL1596095] |  |  | 5.43 | Active |
| O=C(CCl)N(c1ccccc1)c1ccccc1 [CHEMBL1603760] | 4.39 | Inactive |  |  |
| COc1ccccc1NC(=O)CCC(=O)O [CHEMBL1605594] |  |  | 7.81 | Active |
| O=C(CCl)N1c2ccccc2Sc2ccccc21 [CHEMBL1651446] | 5.03 | Active |  |  |
| O=C(CCl)n1c2ccccc2c2ccccc21 [CHEMBL1651449] | 4.00 | Inactive |  |  |
| c1ccc(-c2nc3ccccn3c2-c2ccccc2)cc1 [CHEMBL1719415] | 4.65 | Inactive |  |  |
| N#Cc1ccc(N2CCN(c3nnc(-c4ccc([N+](=O)[O-])o4)s3)CC2)cc1 [CHEMBL1783198] | 3.98 | Inactive |  |  |
| CCOC(=N)c1ccc(N2CCN(c3nnc(-c4ccc([N+](=O)[O-])o4)s3)CC2)cc1.Cl [CHEMBL1783199] | 4.32 | Inactive |  |  |
| Cl.N=C(N)c1ccc(N2CCN(c3nnc(-c4ccc([N+](=O)[O-])o4)s3)CC2)cc1 [CHEMBL1783200] | 3.95 | Inactive |  |  |
| CNC(=N)c1ccc(N2CCN(c3nnc(-c4ccc([N+](=O)[O-])o4)s3)CC2)cc1.Cl [CHEMBL1783201] | 4.64 | Inactive |  |  |
| CCNC(=N)c1ccc(N2CCN(c3nnc(-c4ccc([N+](=O)[O-])o4)s3)CC2)cc1.Cl [CHEMBL1783202] | 4.48 | Inactive |  |  |
| CCCNC(=N)c1ccc(N2CCN(c3nnc(-c4ccc([N+](=O)[O-])o4)s3)CC2)cc1.Cl [CHEMBL1783203] | 5.00 | Active |  |  |
| CCCCNC(=N)c1ccc(N2CCN(c3nnc(-c4ccc([N+](=O)[O-])o4)s3)CC2)cc1.Cl [CHEMBL1783204] | 4.96 | Inactive |  |  |
| CCC(C)NC(=N)c1ccc(N2CCN(c3nnc(-c4ccc([N+](=O)[O-])o4)s3)CC2)cc1.Cl (stereo not drawn) [CHEMBL1783205] | 4.48 | Inactive |  |  |
| Cl.N=C(NCc1ccccc1)c1ccc(N2CCN(c3nnc(-c4ccc([N+](=O)[O-])o4)s3)CC2)cc1 [CHEMBL1783206] | 5.05 | Active |  |  |
| COc1ccc(CNC(=N)c2ccc(N3CCN(c4nnc(-c5ccc([N+](=O)[O-])o5)s4)CC3)cc2)cc1.Cl [CHEMBL1783207] | 4.10 | Inactive |  |  |
| Cl.N=C(NCC1CCCO1)c1ccc(N2CCN(c3nnc(-c4ccc([N+](=O)[O-])o4)s3)CC2)cc1 (stereo not drawn) [CHEMBL1783208] | 4.02 | Inactive |  |  |
| Cl.N=C(c1ccc(N2CCN(c3nnc(-c4ccc([N+](=O)[O-])o4)s3)CC2)cc1)N1CCOCC1 [CHEMBL1783209] | 4.03 | Inactive |  |  |
| Cl.O=[N+]([O-])c1ccc(-c2nnc(N3CCN(c4ccc(C5=NCCN5)cc4)CC3)s2)o1 [CHEMBL1783210] | 3.70 | Inactive |  |  |
| Cl.O=[N+]([O-])c1ccc(-c2nnc(N3CCN(c4ccc(C5=NCCCN5)cc4)CC3)s2)o1 [CHEMBL1783211] | 3.70 | Inactive |  |  |
